Measurements published in patent publication US10934263B2, “Charged ion channel blockers and methods for use” (Nocion Therapeutics, Inc., priority 2019, dated 2021).

Experiments:
NaV1.7 = molecular target: T1, NaV1.7 (Homo sapiens, UniProt Q15858); assay: Whole cell patch clamp, internal block of NaV1.7 current (compound in internal solution); type: cell-based; conditions: % inhibition at 10 μM, compound applied internally, manual patch clamp; read-out: Nav1.7 Intracellular Inhibition
T1 construct: expressed in transfected cells; tetracycline-inducible, kept under hygromycin and blasticidin
T1 sequence (Q15858 whole entry): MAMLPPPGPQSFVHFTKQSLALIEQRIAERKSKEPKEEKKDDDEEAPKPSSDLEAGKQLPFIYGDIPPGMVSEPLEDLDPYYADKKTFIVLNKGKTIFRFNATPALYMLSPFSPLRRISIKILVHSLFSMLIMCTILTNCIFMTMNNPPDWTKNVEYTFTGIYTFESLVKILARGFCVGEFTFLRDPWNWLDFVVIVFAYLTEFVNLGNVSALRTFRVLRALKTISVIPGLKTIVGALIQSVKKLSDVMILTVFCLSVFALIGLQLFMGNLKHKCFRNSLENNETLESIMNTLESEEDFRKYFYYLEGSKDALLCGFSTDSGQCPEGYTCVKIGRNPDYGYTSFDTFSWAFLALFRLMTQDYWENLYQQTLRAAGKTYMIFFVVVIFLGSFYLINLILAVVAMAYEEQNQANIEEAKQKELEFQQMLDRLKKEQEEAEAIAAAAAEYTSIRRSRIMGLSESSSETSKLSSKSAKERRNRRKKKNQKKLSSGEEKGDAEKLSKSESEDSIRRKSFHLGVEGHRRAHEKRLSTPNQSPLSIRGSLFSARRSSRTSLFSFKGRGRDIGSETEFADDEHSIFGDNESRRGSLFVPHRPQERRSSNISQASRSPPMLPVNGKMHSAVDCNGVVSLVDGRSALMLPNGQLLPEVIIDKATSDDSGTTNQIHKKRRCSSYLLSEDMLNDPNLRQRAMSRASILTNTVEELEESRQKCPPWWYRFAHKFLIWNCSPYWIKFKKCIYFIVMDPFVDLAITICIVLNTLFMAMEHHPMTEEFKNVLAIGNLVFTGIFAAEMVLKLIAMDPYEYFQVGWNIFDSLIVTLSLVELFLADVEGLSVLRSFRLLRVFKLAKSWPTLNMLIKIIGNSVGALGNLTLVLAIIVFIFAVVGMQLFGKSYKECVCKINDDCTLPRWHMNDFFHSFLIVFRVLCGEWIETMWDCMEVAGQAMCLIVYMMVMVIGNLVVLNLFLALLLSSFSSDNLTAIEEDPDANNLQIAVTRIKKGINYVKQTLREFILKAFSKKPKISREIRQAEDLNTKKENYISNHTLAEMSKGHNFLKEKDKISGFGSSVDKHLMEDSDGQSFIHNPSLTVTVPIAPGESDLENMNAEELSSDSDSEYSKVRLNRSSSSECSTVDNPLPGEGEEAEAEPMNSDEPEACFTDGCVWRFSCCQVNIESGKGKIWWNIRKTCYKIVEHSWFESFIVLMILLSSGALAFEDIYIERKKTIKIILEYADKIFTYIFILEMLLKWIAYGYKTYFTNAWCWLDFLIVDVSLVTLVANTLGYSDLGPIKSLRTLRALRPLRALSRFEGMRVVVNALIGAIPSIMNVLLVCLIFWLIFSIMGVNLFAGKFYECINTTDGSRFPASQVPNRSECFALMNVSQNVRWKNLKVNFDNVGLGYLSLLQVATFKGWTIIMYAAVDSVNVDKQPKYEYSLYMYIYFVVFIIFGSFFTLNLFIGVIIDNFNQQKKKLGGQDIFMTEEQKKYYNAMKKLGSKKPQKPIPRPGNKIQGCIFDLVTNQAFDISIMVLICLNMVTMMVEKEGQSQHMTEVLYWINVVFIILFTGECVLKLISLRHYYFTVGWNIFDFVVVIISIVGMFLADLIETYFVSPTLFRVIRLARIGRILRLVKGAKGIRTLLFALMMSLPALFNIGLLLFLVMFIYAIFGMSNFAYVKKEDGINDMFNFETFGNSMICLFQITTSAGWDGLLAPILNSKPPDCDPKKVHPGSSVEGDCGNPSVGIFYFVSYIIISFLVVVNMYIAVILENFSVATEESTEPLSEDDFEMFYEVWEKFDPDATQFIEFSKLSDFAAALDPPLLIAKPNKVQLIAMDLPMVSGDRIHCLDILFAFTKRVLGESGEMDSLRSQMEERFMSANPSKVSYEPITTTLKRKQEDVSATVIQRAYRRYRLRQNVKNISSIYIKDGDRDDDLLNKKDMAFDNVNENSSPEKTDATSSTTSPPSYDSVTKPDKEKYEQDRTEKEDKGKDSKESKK
Outline: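 Tetracycline-induced NaV1.7 cells, whole-cell patch clamp at room temperature with compound in CsCl internal solution (pH 7.2), Ringer bath (pH 7.4). Held at −100 mV, steps to −20 mV; after baseline, four 30-s 5 Hz trains. Peak inward current at end of last train divided by baseline gives fraction remaining.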

[1] = PAMPA membrane permeability assay; type: in vitro ADME; conditions: PAMPA permeability coefficient, GIT lipid, buffer pH 7.4, 4 hours incubation
Outline: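 Passive permeability across GIT lipid-coated artificial membrane; compounds at 50 μM in pH 7.4 buffer in donor wells, incubated 4 h. Donor, acceptor and reference concentrations read by UV spectroscopy, permeability coefficient calculated from spectral AUCs.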

Cc1cccc(C)c1NC(=O)C[n+]1cccn1CC#N [Compound 69]
inhibition at 10 µM (NaV1.7): 40 to 70%
PAMPA (10^−6 cm/s) [1]: + (<0.1 10^−6 cm/s)

CCOC(=O)c1cc(C)[n+](CC(=O)Nc2c(C)cccc2C)n1C [Compound 84]
inhibition at 10 µM (NaV1.7): 70 to 95%
PAMPA (10^−6 cm/s) [1]: + (<0.1 10^−6 cm/s)

Cc1cccc(C)c1NC(=O)Cn1ccc[n+]1CC(=O)Nc1c(C)cccc1C [Compound 109]
inhibition at 10 µM (NaV1.7): > 95%
PAMPA (10^−6 cm/s) [1]: + (<0.1 10^−6 cm/s)

Cc1cccc(C)c1NC(=O)C[n+]1cccn1C1CCCC1 [Compound 71]
inhibition at 10 µM (NaV1.7): > 95%
PAMPA (10^−6 cm/s) [1]: + (<0.1 10^−6 cm/s)

Cc1cccc(C)c1NC(=O)C[n+]1c(C)cc(C)n1C [Compound 94]
inhibition at 10 µM (NaV1.7): 70 to 95%
PAMPA (10^−6 cm/s) [1]: + (<0.1 10^−6 cm/s)

Cc1cccc(C)c1NC(=O)C(CC(C)C)[n+]1ccccc1 (stereo not drawn) [Compound 108]
inhibition at 10 µM (NaV1.7): 70 to 95%
PAMPA (10^−6 cm/s) [1]: ++ (0.1-2.0 10^−6 cm/s)

Cc1cccc(C)c1NC(=O)C[n+]1cc(OCc2ccccc2)ccc1Cl [Compound 103]
inhibition at 10 µM (NaV1.7): > 95%
PAMPA (10^−6 cm/s) [1]: + (<0.1 10^−6 cm/s)

Cc1cccc(C)c1NC(=O)C[n+]1cc2ccccc2n1C [Compound 54]
inhibition at 10 µM (NaV1.7): 70 to 95%
PAMPA (10^−6 cm/s) [1]: ++ (0.1-2.0 10^−6 cm/s)

CCCn1ccc(C)[n+]1CC(=O)Nc1c(C)cccc1C [Compound 101]
inhibition at 10 µM (NaV1.7): 70 to 95%
PAMPA (10^−6 cm/s) [1]: + (<0.1 10^−6 cm/s)

COc1cc(OC)c[n+](CC(=O)Nc2c(C)cccc2C)c1 [Compound 98]
inhibition at 10 µM (NaV1.7): 70 to 95%
PAMPA (10^−6 cm/s) [1]: + (<0.1 10^−6 cm/s)

Cc1cccc(C)c1NC(=O)C[n+]1cc(F)cc(-c2ccccc2)c1 [Compound 77]
inhibition at 10 µM (NaV1.7): > 95%
PAMPA (10^−6 cm/s) [1]: + (<0.1 10^−6 cm/s)

COC(=O)c1c(F)c[n+](CC(=O)Nc2c(C)cccc2C)cc1F [Compound 89]
inhibition at 10 µM (NaV1.7): 40 to 70%
PAMPA (10^−6 cm/s) [1]: + (<0.1 10^−6 cm/s)

CCOC(=O)CCCn1ccc[n+]1CC(=O)Nc1c(C)cccc1C [Compound 75]
inhibition at 10 µM (NaV1.7): > 95%
PAMPA (10^−6 cm/s) [1]: + (<0.1 10^−6 cm/s)

Cc1cccc(C)c1NC(=O)C[n+]1cccc(N2CCCC2)c1 [Compound 51]
inhibition at 10 µM (NaV1.7): > 95%
PAMPA (10^−6 cm/s) [1]: ++ (0.1-2.0 10^−6 cm/s)

CCNc1ccc[n+](CC(=O)Nc2c(C)cccc2C)c1 [Compound 50]
inhibition at 10 µM (NaV1.7): > 95%
PAMPA (10^−6 cm/s) [1]: + (<0.1 10^−6 cm/s)

Cc1cccc(C)c1NC(=O)C[n+]1cccc(C(F)(F)F)c1 [Compound 66]
inhibition at 10 µM (NaV1.7): 70 to 95%
PAMPA (10^−6 cm/s) [1]: ++ (0.1-2.0 10^−6 cm/s)

CCn1ccc(C)[n+]1CC(=O)Nc1c(C)cccc1C [Compound 95]
inhibition at 10 µM (NaV1.7): < 40%
PAMPA (10^−6 cm/s) [1]: + (<0.1 10^−6 cm/s)

Cc1cccc(C)c1NC(=O)C[n+]1cccc(S(C)(=O)=O)c1 [Compound 46]
inhibition at 10 µM (NaV1.7): 70 to 95%
PAMPA (10^−6 cm/s) [1]: + (<0.1 10^−6 cm/s)

CCOC(=O)Cn1cc(C)c[n+]1CC(=O)Nc1c(C)cccc1C [Compound 76]
inhibition at 10 µM (NaV1.7): 70 to 95%
PAMPA (10^−6 cm/s) [1]: + (<0.1 10^−6 cm/s)

CNC(=O)Cc1ccc[n+](CC(=O)Nc2c(C)cccc2C)c1 [Compound 33]
inhibition at 10 µM (NaV1.7): 70 to 95%
PAMPA (10^−6 cm/s) [1]: ++ (0.1-2.0 10^−6 cm/s)

CCCCn1ccc[n+]1CC(=O)Nc1c(C)cccc1C [Compound 83]
inhibition at 10 µM (NaV1.7): 70 to 95%
PAMPA (10^−6 cm/s) [1]: + (<0.1 10^−6 cm/s)

Cc1cccc(C)c1NC(=O)C[n+]1cccn1CC1CC1 [Compound 73]
inhibition at 10 µM (NaV1.7): > 95%
PAMPA (10^−6 cm/s) [1]: + (<0.1 10^−6 cm/s)

Cc1cccc(C)c1NC(=O)C[n+]1cccc(S(=O)(=O)N(C)C)c1 [Compound 47]
inhibition at 10 µM (NaV1.7): 70 to 95%
PAMPA (10^−6 cm/s) [1]: + (<0.1 10^−6 cm/s)

Cc1cccc(C)c1NC(=O)C(Cc1ccccc1)[n+]1ccccc1 (stereo not drawn) [Compound 106]
inhibition at 10 µM (NaV1.7): > 95%
PAMPA (10^−6 cm/s) [1]: + (<0.1 10^−6 cm/s)

CCCn1c(C)cc[n+]1CC(=O)Nc1c(C)cccc1C [Compound 81]
inhibition at 10 µM (NaV1.7): 70 to 95%
PAMPA (10^−6 cm/s) [1]: + (<0.1 10^−6 cm/s)

Cc1cccc(C)c1NC(=O)C[n+]1cccc(Cc2ccccc2)c1 [Compound 34]
inhibition at 10 µM (NaV1.7): 70 to 95%
PAMPA (10^−6 cm/s) [1]: ++ (0.1-2.0 10^−6 cm/s)

CCn1c(C)cc[n+]1CC(=O)Nc1c(C)cccc1C [Compound 104]
inhibition at 10 µM (NaV1.7): 70 to 95%
PAMPA (10^−6 cm/s) [1]: + (<0.1 10^−6 cm/s)
